Experimental data: ChEMBL document CHEMBL4622850, “Discovery and optimization of new oxadiazole substituted thiazole RORγt inverse agonists through a bioisosteric amide replacement approach” (Bioorg Med Chem Lett, 2020)
In brackets after ≈: the same amount, converted by molar mass.

Experiments:
[1] = Plasma concentration in mouse at 30 mg/kg, po measured after 0.5 hrs; format: ADME, organism-based
[2] = Plasma concentration in mouse at 30 mg/kg, po measured after 24 hrs; format: ADME, organism-based
[3] = molecular target: T1, Nuclear receptor ROR-gamma (Mus musculus) (UniProt P51450); assay: In vivo inhibition of RORgammat in mouse assessed as reduction in IL-17a production at 30 mg/kg, po measured after 24 hrs relative to control; format: functional, organism-based
T1 sequence (whole entry): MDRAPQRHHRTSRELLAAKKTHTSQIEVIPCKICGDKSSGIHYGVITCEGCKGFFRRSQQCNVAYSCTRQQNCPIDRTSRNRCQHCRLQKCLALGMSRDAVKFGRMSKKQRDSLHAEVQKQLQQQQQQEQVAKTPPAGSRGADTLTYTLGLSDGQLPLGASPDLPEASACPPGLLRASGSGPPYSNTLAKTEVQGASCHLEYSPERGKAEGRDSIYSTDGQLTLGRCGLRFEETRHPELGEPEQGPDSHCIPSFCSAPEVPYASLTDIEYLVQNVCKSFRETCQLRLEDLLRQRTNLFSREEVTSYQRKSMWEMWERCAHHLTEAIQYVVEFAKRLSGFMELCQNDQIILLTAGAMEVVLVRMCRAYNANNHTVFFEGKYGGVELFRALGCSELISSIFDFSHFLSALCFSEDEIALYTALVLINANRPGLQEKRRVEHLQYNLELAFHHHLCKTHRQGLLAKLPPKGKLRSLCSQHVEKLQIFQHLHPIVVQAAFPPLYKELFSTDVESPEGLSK

Cytochrome P450 2C9 = Cytochrome P450 2C9 (Homo sapiens, UniProt P11712); assay: Inhibition of CYP2C9 (unknown origin); format: ADME
Cytochrome P450 2C9, sequence (P11712 whole entry): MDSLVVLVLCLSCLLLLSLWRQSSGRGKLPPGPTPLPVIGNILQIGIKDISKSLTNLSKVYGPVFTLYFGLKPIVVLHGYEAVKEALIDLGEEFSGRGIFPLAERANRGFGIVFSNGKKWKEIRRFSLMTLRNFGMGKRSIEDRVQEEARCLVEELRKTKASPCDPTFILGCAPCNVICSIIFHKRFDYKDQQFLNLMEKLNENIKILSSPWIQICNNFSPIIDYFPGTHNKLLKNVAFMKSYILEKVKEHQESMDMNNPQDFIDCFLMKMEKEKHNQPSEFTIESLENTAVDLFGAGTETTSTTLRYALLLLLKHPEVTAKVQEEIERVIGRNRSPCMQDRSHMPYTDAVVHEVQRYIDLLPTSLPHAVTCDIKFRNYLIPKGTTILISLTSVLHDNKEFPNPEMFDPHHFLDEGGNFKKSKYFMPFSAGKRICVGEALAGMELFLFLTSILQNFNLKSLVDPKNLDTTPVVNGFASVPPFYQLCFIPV

[4] = Plasma concentration in mouse at 30 mg/kg, po measured after 2 hrs; format: ADME, organism-based
[5] = Protein binding in human plasma; format: ADME, cell-free; conditions: read-out: PPB (converted)
[6] = AUC in rat at 300 mg/kg, po measured on day 1; format: ADME, organism-based; conditions: in vivo
[7] = molecular target: T1, Nuclear receptor ROR-gamma (Mus musculus); assay: In vivo inhibition of RORgammat in mouse assessed as reduction in IL-17a production at 30 mg/kg, po measured after 0.5 hrs relative to control; format: functional, organism-based
[8] = molecular target: T1, Nuclear receptor ROR-gamma (Mus musculus); assay: In vivo inhibition of RORgammat in mouse assessed as reduction in IL-17a production at 30 mg/kg, po measured after 7 hrs relative to control; format: functional, organism-based
[9] = Metabolic stability in rat liver microsomes assessed as half life; format: ADME, Microsome
[10] = molecular target: T1, Nuclear receptor ROR-gamma (Mus musculus); assay: In vivo inhibition of RORgammat in mouse assessed as reduction in IL-17a production at 30 mg/kg, po measured after 4 hrs relative to control; format: functional, organism-based
[11] = molecular target: T1, Nuclear receptor ROR-gamma (Mus musculus); assay: In vivo inhibition of RORgammat in mouse assessed as reduction in IL-17a production at 30 mg/kg, po measured after 1 hr relative to control; format: functional, organism-based
[12] = Clearance in rat at 1 mg/kg, iv; format: ADME, organism-based; conditions: in vivo
[13] = Cmax in rat at 300 mg/kg, po measured on day 1; format: ADME, organism-based; parameters: dose 300 mg/kg, route oral; conditions: in vivo
[14] = molecular target: T2, Nuclear receptor subfamily 1 group I member 2 (Homo sapiens, UniProt O75469); assay: Activation of PXR (unknown origin) at 5 uM; format: ADME
T2 sequence (O75469 whole entry): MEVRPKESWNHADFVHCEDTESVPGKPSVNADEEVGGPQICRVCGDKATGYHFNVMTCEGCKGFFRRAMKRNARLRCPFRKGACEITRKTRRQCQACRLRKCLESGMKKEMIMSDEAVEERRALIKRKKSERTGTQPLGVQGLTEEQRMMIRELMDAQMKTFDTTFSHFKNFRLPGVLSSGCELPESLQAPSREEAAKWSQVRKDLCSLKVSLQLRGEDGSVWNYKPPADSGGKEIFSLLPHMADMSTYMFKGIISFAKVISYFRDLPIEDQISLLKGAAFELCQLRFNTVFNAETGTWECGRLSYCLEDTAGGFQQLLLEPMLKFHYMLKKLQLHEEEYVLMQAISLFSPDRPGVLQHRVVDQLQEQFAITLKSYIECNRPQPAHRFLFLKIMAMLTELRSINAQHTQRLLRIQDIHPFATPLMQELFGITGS

[15] = Protein binding in mouse plasma; format: ADME, cell-free; conditions: read-out: PPB (converted)
[16] = molecular target: T1, Nuclear receptor ROR-gamma (Mus musculus); assay: In vivo inhibition of RORgammat in mouse assessed as reduction in IL-17a production at 30 mg/kg, po measured after 2 hrs relative to control; format: functional, organism-based
CYP3A4 [17] = molecular target: T3, CYP3A4 (Homo sapiens, UniProt P08684); assay: Inhibition of CYP3A4 (unknown origin) at 1 uM; format: ADME
T3 sequence (P08684 whole entry): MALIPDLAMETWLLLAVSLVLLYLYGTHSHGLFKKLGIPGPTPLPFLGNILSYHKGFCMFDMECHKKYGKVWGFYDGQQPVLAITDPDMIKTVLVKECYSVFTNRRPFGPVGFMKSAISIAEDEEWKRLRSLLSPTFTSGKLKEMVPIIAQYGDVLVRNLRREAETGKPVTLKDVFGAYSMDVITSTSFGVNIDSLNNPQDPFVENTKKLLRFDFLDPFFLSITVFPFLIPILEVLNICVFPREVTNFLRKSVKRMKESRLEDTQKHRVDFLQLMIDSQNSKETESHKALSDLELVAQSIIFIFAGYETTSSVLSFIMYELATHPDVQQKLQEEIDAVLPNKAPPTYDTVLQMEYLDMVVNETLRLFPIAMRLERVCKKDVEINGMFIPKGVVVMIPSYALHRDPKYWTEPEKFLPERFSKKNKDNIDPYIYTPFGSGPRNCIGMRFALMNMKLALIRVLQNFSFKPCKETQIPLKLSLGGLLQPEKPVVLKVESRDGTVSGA

[18] = molecular target: T4, Nuclear receptor ROR-gamma (Mus musculus, UniProt P51450); assay: Inverse agonist activity at RORgammat in mouse whole blood assessed as reduction in IL-17a production; format: tissue-based
T4 sequence (P51450 whole entry): T1 sequence (whole entry)

[19] = Cmax in rat at 5 mg/kg, po; format: ADME, organism-based; parameters: dose 5 mg/kg, route oral; conditions: in vivo
[20] = Plasma concentration in mouse at 30 mg/kg, po measured after 1 hr; format: ADME, organism-based
[21] = Solubility of compound by pH 7; format: physicochemical; conditions: buffer
[22] = Cmax in rat at 300 mg/kg, po measured on day 5; format: ADME, organism-based; parameters: dose 300 mg/kg, route oral; conditions: in vivo
[23] = Half life in rat at 1 mg/kg, iv; format: ADME, organism-based; conditions: in vivo
[24] = Metabolic stability in human liver microsomes assessed as half life; format: ADME, Microsome
[25] = Oral bioavailability in rat at 1 mg/kg; format: ADME, organism-based; conditions: in vivo
[26] = Volume of distribution in rat at 1 mg/kg, iv; format: ADME, organism-based; conditions: in vivo
Cytochrome P450 2C8 = molecular target: T5, Cytochrome P450 2C8 (Homo sapiens, UniProt P10632); assay: Inhibition of CYP2C8 (unknown origin); format: ADME
T5 sequence (P10632 whole entry): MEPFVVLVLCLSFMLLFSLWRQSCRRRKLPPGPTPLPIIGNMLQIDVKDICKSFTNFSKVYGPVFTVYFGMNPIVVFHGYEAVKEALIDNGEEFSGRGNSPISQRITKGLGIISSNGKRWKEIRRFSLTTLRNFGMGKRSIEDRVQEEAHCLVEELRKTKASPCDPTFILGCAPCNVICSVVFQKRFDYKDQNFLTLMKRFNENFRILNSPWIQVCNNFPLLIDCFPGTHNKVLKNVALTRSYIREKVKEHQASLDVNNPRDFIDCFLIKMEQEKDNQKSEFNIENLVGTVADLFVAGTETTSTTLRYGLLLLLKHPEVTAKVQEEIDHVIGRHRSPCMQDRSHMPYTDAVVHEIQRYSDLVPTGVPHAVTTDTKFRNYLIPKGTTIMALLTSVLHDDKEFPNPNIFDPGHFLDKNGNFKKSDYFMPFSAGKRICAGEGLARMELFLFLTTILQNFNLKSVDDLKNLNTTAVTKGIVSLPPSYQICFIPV

CYP3A4 [27] = molecular target: T3, CYP3A4; assay: Inhibition of CYP3A4 (unknown origin) at 10 uM; format: ADME
[28] = Plasma concentration in mouse at 30 mg/kg, po measured after 7 hrs; format: ADME, organism-based
[29] = AUC in rat at 300 mg/kg, po measured on day 5; format: ADME, organism-based; conditions: in vivo
[30] = AUC in rat at 5 mg/kg, po; format: ADME, organism-based; conditions: in vivo
[31] = Solubility of compound by pH 2; format: physicochemical; conditions: buffer
[32] = molecular target: T2, Nuclear receptor subfamily 1 group I member 2; assay: Activation of PXR (unknown origin) at 1 uM; format: ADME
[33] = Plasma concentration in mouse at 30 mg/kg, po measured after 4 hrs; format: ADME, organism-based
[34] = molecular target: T1, Nuclear receptor ROR-gamma (Mus musculus); assay: In vivo inhibition of RORgammat in mouse assessed as reduction in IL-17a production at 3 mg/kg, po measured after 1 hr relative to control; format: functional, organism-based
[35] = Protein binding in rat plasma; format: ADME, cell-free; conditions: read-out: PPB (converted)
Cytochrome P450 2C19 = Cytochrome P450 2C19 (Homo sapiens, UniProt P33261); assay: Inhibition of CYP2C19 (unknown origin); format: ADME
Cytochrome P450 2C19, sequence (P33261 whole entry): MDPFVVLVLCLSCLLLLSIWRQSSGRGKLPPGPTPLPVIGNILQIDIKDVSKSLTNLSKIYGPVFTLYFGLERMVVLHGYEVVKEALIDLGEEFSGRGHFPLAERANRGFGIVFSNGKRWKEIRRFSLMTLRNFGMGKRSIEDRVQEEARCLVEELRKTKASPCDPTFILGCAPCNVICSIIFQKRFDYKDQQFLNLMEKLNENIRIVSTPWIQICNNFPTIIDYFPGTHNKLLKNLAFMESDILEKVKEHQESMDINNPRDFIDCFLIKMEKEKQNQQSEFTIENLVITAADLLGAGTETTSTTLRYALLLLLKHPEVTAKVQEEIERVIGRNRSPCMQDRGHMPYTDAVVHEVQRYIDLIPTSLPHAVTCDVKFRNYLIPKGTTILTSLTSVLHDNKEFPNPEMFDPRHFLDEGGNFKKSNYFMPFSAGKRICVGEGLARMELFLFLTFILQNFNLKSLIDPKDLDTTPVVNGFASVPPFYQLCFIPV

[36] = Cmax in rat at 1000 mg/kg, po measured on day 5; format: ADME, organism-based; parameters: dose 1000 mg/kg, route oral; conditions: in vivo
[37] = Plasma concentration in mouse at 3 mg/kg, po measured after 1 hr; format: ADME, organism-based
[38] = AUC in rat at 1000 mg/kg, po measured on day 1; format: ADME, organism-based; conditions: in vivo
[39] = Cmax in rat at 1000 mg/kg, po measured on day 1; format: ADME, organism-based; parameters: dose 1000 mg/kg, route oral; conditions: in vivo
[40] = AUC in rat at 1000 mg/kg, po measured on day 5; format: ADME, organism-based; conditions: in vivo

Compound	fraction unbound [5]	half-life [9] [h]	inhibition [11] [%]	clearance [12] [mL/min/kg]	fraction unbound [15]	inhibition at 1 µM (CYP3A4 [17]) [%]	IC50 [18] [nM]	Cmax [19] [µM]	concentration at 1 h [20] [µM]	solubility [21] [µM]	half-life [23] [h]	half-life [24] [h]	bioavailability [25] [%]	Vd [26] [L/kg]	inhibition at 10 µM (CYP3A4 [27]) [%]	AUC [30] [µg·h/mL]	solubility [31] [µM]	Activity [32] [%]	other results
CC[C@H](NS(=O)(=O)c1ccc(-c2sc(CC(C)(C)C(=O)O)nc2CC2CCC2)c(C(F)F)c1F)C(F)(F)F	0.003	> 3	68	2.9	0.002	-1	2500	3.8	52.1	355 (≈ 208 µg/mL)	7.6	> 3	112	1.7	3.4	32.7	< 4	8.9	concentration at 0.5 h [1]: 61.4 µM; concentration at 24 h [2]: 2.2 µM; inhibition [3]: 39%; IC50 (Cytochrome P450 2C9): 6300 nM; concentration at 2 h [4]: 46.4 µM; AUC [6]: 4710 µg·h/mL; inhibition [7]: 73%; inhibition [8]: 46%; inhibition [10]: 61%; Cmax [13]: 303 µg/mL; Activity [14]: 21%; inhibition [16]: 75%; Cmax [22]: 151 µg/mL; IC50 (Cytochrome P450 2C8): 1800 nM; concentration at 7 h [28]: 43.1 µM; AUC [29]: 1790 µg·h/mL; concentration at 4 h [33]: 39.7 µM
C[C@H](NS(=O)(=O)c1ccc(-c2sc(-c3nnc(C(C)(C)O)o3)nc2C(=O)N2CCC(F)(F)CC2)c(Cl)c1Cl)C(F)(F)F	0.077	2.47	84	25	0.058	8.1	196	0.23	10.2	35 (≈ 23.7 µg/mL)	4.3	> 3	47	7.7	26	1.57	18 (≈ 12.2 µg/mL)	8.5	inhibition [34]: 69%; fraction unbound [35]: 0.095; IC50 (Cytochrome P450 2C19): 6700 nM; Cmax [36]: 3.16 µg/mL; concentration at 1 h [37]: 0.49 µM; AUC [38]: 274 µg·h/mL; Cmax [39]: 24.5 µg/mL; AUC [40]: 51 µg·h/mL
